{"source": "ChEMBL document CHEMBL1201862", "about": "“PubChem BioAssay data set” (2004)", "key": {"[1]": {"target": "T1, Coagulation factor XII (Homo sapiens, UniProt P00748)", "T1 sequence (P00748 whole entry)": "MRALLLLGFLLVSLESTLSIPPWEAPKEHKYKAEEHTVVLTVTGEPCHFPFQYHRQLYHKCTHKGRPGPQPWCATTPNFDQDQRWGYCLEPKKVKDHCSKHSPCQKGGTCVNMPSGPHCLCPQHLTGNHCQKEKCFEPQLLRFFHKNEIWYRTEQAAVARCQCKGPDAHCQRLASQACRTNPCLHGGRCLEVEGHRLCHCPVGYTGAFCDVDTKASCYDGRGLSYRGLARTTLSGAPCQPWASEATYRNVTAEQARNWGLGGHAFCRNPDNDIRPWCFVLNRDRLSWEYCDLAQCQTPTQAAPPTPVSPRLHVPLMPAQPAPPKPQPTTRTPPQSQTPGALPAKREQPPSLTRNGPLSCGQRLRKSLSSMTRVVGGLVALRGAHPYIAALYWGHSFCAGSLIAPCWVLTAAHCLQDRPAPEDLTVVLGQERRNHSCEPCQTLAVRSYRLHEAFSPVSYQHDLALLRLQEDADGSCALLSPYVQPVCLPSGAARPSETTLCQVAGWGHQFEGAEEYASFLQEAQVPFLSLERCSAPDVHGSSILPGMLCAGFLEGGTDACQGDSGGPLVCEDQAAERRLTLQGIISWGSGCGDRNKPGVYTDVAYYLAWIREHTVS", "assay": "FXIIa inhibitor potency, concentration-response, biochemical (AID 716)", "assay_type": "functional"}, "[2]": {"target": "T2, Voltage-gated N-type calcium channel alpha-1B subunit/Amyloid beta A4 precursor protein-binding family A member 1 (Homo sapiens, UniProt Q00975+Q02410)", "T2 sequence (Q00975 whole entry)": "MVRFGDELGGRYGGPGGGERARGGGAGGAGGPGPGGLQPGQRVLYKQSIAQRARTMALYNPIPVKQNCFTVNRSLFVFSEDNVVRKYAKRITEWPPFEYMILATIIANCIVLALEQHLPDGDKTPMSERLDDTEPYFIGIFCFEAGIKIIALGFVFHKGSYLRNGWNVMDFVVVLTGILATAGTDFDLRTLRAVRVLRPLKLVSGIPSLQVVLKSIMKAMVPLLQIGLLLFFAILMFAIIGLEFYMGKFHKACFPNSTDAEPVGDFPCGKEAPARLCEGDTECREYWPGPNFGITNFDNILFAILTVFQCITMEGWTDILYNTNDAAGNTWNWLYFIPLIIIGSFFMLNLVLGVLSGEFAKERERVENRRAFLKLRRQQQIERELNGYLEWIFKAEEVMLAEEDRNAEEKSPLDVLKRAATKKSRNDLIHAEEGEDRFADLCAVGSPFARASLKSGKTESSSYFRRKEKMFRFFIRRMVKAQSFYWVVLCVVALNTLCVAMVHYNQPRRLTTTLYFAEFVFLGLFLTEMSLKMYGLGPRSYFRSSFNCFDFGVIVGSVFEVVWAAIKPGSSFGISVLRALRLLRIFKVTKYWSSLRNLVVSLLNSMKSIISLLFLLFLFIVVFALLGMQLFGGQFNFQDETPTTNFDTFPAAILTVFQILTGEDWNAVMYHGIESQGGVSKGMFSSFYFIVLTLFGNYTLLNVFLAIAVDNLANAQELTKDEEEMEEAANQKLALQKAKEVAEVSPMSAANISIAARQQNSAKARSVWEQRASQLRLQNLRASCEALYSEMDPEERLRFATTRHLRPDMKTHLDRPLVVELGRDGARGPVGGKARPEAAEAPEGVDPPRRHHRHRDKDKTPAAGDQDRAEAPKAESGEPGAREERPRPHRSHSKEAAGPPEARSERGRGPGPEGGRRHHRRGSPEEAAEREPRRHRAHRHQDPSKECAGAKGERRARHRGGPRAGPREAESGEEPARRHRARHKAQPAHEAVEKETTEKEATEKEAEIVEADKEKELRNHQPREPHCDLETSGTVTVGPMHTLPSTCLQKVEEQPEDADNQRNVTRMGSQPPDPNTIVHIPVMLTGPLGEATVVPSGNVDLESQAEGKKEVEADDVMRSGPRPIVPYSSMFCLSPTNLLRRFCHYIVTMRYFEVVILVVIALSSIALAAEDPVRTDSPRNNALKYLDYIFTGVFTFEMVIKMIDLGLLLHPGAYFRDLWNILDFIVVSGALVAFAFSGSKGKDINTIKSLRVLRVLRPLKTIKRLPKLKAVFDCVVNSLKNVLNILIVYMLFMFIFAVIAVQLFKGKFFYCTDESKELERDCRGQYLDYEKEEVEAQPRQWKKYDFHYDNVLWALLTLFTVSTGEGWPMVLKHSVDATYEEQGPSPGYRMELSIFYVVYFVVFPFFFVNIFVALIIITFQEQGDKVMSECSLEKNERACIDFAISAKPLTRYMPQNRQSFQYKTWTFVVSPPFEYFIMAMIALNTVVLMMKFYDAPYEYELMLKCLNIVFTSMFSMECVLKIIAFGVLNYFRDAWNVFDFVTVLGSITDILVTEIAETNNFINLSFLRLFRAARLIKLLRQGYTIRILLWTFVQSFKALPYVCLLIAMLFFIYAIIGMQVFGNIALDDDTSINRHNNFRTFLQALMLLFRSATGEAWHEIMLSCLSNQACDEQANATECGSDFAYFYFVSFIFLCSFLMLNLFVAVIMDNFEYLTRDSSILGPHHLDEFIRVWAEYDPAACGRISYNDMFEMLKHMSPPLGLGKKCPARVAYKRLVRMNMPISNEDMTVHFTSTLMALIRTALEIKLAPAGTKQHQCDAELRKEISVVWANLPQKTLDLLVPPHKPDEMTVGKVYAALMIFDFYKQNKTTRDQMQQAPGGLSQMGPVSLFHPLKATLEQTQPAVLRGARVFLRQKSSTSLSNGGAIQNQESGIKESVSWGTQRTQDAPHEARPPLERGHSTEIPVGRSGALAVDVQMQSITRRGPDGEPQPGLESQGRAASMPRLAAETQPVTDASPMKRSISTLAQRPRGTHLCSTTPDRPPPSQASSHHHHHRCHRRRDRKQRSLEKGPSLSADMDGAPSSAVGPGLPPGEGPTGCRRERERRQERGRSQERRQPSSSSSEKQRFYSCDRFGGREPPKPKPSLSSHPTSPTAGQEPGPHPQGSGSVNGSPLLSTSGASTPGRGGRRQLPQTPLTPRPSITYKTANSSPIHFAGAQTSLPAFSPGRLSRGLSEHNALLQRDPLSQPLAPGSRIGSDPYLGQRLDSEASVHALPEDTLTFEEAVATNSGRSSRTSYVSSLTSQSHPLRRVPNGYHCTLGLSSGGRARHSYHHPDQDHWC", "T2 sequence (Q02410 whole entry)": "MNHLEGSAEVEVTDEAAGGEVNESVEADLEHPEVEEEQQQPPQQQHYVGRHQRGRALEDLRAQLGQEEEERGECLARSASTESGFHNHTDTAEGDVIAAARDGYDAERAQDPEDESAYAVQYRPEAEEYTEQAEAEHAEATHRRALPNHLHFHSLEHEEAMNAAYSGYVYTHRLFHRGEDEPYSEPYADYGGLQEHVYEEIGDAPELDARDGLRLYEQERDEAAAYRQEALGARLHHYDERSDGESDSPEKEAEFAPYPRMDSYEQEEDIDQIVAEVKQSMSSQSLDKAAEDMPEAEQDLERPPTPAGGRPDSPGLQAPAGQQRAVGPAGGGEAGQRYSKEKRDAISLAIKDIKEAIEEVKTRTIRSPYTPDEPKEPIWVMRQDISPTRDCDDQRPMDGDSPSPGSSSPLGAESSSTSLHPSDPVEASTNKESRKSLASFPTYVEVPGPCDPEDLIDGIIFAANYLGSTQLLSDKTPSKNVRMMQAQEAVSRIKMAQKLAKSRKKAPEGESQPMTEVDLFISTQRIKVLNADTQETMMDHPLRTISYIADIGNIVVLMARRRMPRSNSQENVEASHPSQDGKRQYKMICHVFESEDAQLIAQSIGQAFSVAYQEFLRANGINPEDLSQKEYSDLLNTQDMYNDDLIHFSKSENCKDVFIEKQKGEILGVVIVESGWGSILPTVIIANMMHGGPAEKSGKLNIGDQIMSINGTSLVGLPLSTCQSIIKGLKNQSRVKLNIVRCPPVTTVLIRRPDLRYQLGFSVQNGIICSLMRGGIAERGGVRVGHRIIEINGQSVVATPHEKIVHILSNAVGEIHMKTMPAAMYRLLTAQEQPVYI", "assay_type": "protein assay"}, "[3]": {"target": "Luciferin 4-monooxygenase (Photinus pyralis, UniProt P08659)", "assay": "firefly luciferase enzyme inhibitors, dose response, biochemical, luminescence (AID 1891)"}, "[4]": {"assay": "Luminescence Cell-Based Dose Confirmation HTS to Identify Inhibitors of Platelet Dense Granule Release. [Related pubchem assays: 1663 (Primary HTS), 1678 (Summary of Project)]", "assay_type": "functional"}, "[5]": {"target": "T2, Voltage-gated N-type calcium channel alpha-1B subunit/Amyloid beta A4 precursor protein-binding family A member 1", "assay_type": "protein assay", "remark": "listed apart in the source"}, "[6]": {"target": "Beta-galactosidase (Escherichia coli, UniProt Q8VNN2)", "assay": "beta-galactosidase enzyme inhibitors and activators, dose response, artefact control for CCR6 antagonist project, biochemical, E. coli enzyme, set 3 (AID 504712)", "assay_type": "functional"}, "[7]": {"assay": "Fluorescence-based cell-based high throughput dose response assay for inhibitors of the interaction of nucleotide-binding oligomerization domain containing 2 (NOD2) and the receptor-interacting serine-threonine kinase 2 (RIPK2).", "assay_type": "functional", "conditions": "Homo sapiens"}, "[8]": {"target": "Beta Lactamase (Pseudomonas aeruginosa, UniProt Q932Y6)", "sequence (Q932Y6 whole entry)": "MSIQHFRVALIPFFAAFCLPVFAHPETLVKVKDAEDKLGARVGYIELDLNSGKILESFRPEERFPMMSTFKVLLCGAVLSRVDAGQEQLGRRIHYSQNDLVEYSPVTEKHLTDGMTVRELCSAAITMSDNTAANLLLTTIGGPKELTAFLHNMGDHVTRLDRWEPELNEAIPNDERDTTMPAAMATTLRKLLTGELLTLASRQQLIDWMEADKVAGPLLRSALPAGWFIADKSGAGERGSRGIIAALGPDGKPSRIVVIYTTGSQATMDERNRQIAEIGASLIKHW", "assay": "beta-lactamase reporter inhibitor potency, dose response, artefact control for NOD2-RIPK2 interaction inhibitor project, BLA reporter cells, FRET fluorescence (AID 651552)", "assay_type": "functional, cell-based"}, "[9]": {"target": "Hexokinase (Trypanosoma brucei, UniProt Q38C41)", "assay": "Confirmation assay for inhibitors of Trypanosoma brucei hexokinase 1-Analogue-first series. [Related pubchem assays (depositor defined):AID1430, AID1632, AID2516, AID2560, AID2579, AID2600, AID449725, AID492951]", "assay_type": "functional"}, "[10]": {"target": "Mu-type opioid receptor (Homo sapiens, UniProt P35372)", "sequence (P35372 whole entry)": "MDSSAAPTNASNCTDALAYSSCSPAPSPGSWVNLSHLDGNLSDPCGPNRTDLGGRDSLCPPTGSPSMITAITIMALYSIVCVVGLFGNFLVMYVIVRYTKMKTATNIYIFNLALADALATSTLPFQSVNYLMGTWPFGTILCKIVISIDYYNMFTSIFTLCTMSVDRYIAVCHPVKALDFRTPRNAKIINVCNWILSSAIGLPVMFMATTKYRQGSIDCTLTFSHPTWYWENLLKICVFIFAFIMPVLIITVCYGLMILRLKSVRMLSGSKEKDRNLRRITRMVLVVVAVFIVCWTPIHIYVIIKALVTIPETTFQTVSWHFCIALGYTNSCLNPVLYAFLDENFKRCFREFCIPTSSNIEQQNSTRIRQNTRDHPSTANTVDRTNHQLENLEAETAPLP", "assay": "SAR Analysis of Antagonists of the MOR Receptor using an Image-Based Assay - Set 3. [Related pubchem assays (depositor defined):AID1777, AID1785, AID1786, AID1966, AID2133, AID2136, AID2284, AID2285, AID2420]", "assay_type": "functional"}, "[11]": {"target": "Delta-type opioid receptor (Homo sapiens, UniProt P41143)", "sequence (P41143 whole entry)": "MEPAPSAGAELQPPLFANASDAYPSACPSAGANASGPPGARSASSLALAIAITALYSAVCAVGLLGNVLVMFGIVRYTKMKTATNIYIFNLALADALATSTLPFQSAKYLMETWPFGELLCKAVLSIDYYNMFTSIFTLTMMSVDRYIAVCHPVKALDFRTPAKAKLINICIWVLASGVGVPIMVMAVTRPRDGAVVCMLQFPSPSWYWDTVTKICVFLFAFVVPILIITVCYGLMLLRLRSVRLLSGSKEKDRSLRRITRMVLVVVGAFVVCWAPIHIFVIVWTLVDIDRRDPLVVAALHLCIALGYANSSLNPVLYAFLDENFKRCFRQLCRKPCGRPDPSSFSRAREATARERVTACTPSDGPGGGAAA", "assay": "SAR Analysis of Antagonists of the DOR Receptor using an Image-Based Assay - Set 3. [Related pubchem assays (depositor defined):AID1777, AID1785]", "assay_type": "functional"}, "[12]": {"target": "T3, Kappa-type opioid receptor (Homo sapiens, UniProt P41145)", "T3 sequence (P41145 whole entry)": "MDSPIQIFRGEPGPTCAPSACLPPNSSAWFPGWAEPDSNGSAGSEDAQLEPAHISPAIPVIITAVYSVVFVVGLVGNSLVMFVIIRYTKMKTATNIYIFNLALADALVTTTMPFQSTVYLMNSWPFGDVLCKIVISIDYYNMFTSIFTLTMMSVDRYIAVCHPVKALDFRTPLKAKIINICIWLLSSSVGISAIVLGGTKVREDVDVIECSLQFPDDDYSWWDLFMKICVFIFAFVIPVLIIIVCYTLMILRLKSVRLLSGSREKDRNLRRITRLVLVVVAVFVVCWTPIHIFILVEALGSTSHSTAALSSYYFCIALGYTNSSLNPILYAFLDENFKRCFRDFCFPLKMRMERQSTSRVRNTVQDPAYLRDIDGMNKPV", "assay": "SAR analysis of small molecule antagonists of the kappa opioid receptor via a luminescent beta-arrestin assay - Set 3. [Related pubchem assays (depositor defined):AID1777, AID1778, AID1785, AID1786, AID1966, AID2133, AID2136, AID2285, AID2495]", "assay_type": "functional"}, "[13]": {"target": "T3, Kappa-type opioid receptor", "assay": "SAR analysis of Antagonists of the Kappa Opioid Receptor (KOR) using an Image-Based Assay - Set 3. [Related pubchem assays (depositor defined):AID1777, AID1785]", "assay_type": "functional"}, "[14]": {"target": "T3, Kappa-type opioid receptor", "assay": "SAR analysis of Antagonists of the Kappa Opioid Receptor (KOR) using an Image-Based Assay - Set 4. [Related pubchem assays (depositor defined):AID1777, AID1785]", "assay_type": "functional"}, "[15]": {"assay": "THP-1 cell cytotoxicity, dose response, cytotoxicity control for non-replicating M. tuberculosis project (AID 489025)", "assay_type": "functional"}, "[16]": {"target": "T4, Ubiquitin-conjugating enzyme E2 N (Homo sapiens, UniProt P61088)", "T4 sequence (P61088 whole entry)": "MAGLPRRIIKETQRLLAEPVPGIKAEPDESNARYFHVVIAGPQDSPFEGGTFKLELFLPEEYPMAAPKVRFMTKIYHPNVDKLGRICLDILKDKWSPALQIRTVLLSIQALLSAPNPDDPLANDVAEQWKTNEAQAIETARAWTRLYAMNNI", "assay_type": "functional"}, "[17]": {"assay": "Vero E6 cell cytotoxicity, dose response, cytotoxicity control for non-replicating M. tuberculosis project, secondary assay (AID 492998)", "assay_type": "functional, VeroE6", "conditions": "Vero C1008"}, "[18]": {"target": "Nonstructural protein 1 (Influenza A virus, UniProt Q194T2)", "sequence (Q194T2 whole entry)": "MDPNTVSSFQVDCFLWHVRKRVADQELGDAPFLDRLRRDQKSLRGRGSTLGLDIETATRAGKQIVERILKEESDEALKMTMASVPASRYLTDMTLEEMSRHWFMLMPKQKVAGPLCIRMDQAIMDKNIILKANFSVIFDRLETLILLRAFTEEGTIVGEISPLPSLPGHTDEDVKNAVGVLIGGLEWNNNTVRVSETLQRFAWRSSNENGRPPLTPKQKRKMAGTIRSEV", "assay_type": "functional, Influenza A virus (A/California/07/2009(H1N1))"}, "[19]": {"target": "DNA damage-inducible transcript 3 protein (Mus musculus, UniProt P35639)", "sequence (P35639 whole entry)": "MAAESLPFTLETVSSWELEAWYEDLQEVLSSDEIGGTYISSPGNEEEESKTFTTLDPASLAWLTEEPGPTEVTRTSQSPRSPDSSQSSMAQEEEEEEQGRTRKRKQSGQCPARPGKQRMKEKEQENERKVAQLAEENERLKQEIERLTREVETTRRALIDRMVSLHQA", "assay_type": "functional, Cricetulus griseus"}, "[20]": {"assay": "cells", "assay_type": "functional"}, "[21]": {"assay": "cells", "assay_type": "functional, cell-based"}, "[22]": {"target": "T5, Trace amine-associated receptor 1 (Homo sapiens, UniProt Q96RJ0)", "T5 sequence (Q96RJ0 whole entry)": "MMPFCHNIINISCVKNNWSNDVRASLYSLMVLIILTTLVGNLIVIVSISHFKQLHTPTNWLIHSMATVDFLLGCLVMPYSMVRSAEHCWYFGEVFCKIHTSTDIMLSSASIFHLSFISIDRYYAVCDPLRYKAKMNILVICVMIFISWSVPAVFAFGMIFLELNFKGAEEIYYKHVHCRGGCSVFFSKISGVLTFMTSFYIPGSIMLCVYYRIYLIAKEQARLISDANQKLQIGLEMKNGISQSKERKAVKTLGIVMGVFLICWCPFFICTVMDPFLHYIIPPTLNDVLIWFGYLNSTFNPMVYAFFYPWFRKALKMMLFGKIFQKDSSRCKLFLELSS", "assay": "Fluorescence-based cell-based high throughput dose response assay to identify agonists of the human trace amine associated receptor 1 (TAAR1).", "assay_type": "functional"}, "[23]": {"target": "T6, DNA repair protein RAD52 homolog (Homo sapiens, UniProt P43351)", "T6 sequence (P43351 whole entry)": "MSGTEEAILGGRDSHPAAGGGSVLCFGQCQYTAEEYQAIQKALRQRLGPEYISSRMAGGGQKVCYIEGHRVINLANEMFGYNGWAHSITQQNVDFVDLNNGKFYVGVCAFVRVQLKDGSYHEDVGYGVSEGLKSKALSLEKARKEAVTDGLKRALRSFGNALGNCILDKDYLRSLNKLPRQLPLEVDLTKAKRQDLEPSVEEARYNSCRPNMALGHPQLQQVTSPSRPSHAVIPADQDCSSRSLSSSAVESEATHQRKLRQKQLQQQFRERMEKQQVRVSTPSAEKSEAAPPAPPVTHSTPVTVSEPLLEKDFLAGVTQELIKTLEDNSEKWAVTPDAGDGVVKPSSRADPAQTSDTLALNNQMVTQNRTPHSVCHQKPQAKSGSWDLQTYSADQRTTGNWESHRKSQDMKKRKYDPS", "assay_type": "functional, biochemical"}, "[24]": {"target": "T5, Trace amine-associated receptor 1", "assay": "Counterscreen for agonists of the human trace amine associated receptor 1 (hTAAR1): Fluorescence-based cell-based high throughput dose response assay to identify hTAAR1 agonist that also desensitize TAAR1 receptor response.", "assay_type": "functional"}, "[25]": {"assay": "cells", "assay_type": "functional, cell-based", "remark": "listed apart in the source"}}, "note": "Calls of active or inactive are those of the source.", "data": [{"compound": "Cc1ccc(NC(=O)C[S+]([O-])CC(=O)NCC2CCCO2)cc1", "note": "(stereo not given)", "values": [{"measurement": "IC50", "setting": "[1]", "value": "> 50 µM (inactive)"}]}, {"compound": "O=C1C=C(c2ccccc2)C(=O)N1Nc1ccccc1", "values": [{"measurement": "IC50", "setting": "[2]", "value": "20.4 µM (active)"}, {"measurement": "EC50", "setting": "[3]", "value": "> 112 µM (not active)"}, {"measurement": "EC50", "setting": "[4]", "value": "8.82 µM (active)"}, {"measurement": "IC50", "setting": "[5]", "value": "45.8 µM (active)"}, {"measurement": "IC50", "setting": "[6]", "value": "> 66.6 µM (inactive)"}, {"measurement": "IC50", "setting": "[7]", "value": "1.68 µM (active)"}, {"measurement": "IC50", "setting": "[8]", "value": "18.7 µM (inactive)"}]}, {"compound": "COc1ccc(C(=O)NC(CC(=O)O)c2cccc(Cl)c2)cc1", "note": "(stereo not given)", "values": [{"measurement": "IC50", "setting": "[9]", "value": "> 25 µM (inactive)"}]}, {"compound": "Cc1ccc(N2CCN(CCCNC(=O)Cn3c(=O)c4cccn4c4cccnc43)CC2)cc1", "values": [{"measurement": "IC50", "setting": "[10]", "value": "18.8 µM (inactive)"}, {"measurement": "IC50", "setting": "[11]", "value": "> 32 µM (inactive)"}, {"measurement": "IC50", "setting": "[12]", "value": "3.68 µM (active)"}, {"measurement": "IC50", "setting": "[13]", "value": "0.776 µM (active)"}, {"measurement": "IC50", "setting": "[14]", "value": "1.01 µM (active)"}]}, {"compound": "N=C(N)N/N=C/c1cn(-c2ccccc2)nc1-c1cccs1.O=[N+]([O-])O", "values": [{"measurement": "CC50", "setting": "[15]", "value": "12.3 µM (active)"}, {"measurement": "IC50", "setting": "[16]", "value": "> 20 µM (inactive)"}, {"measurement": "CC50", "setting": "[17]", "value": "11 µM (active)"}, {"measurement": "IC50", "setting": "[18]", "value": "> 100 µM (active)"}, {"measurement": "Absolute IC50 (CHOP)", "setting": "[19]", "value": 10, "unit": "µM"}, {"measurement": "IC50", "setting": "[20]", "value": "11 µM (active)"}, {"measurement": "IC50", "setting": "[21]", "value": "12.2 µM (inactive)"}, {"measurement": "EC50", "setting": "[22]", "value": "6.9 µM (active)"}, {"measurement": "AC50", "setting": "[23]", "value": "3.85 µM (active)"}, {"measurement": "IC50", "setting": "[24]", "value": "17.7 µM (inactive)"}, {"measurement": "EC50", "setting": "[25]", "value": "11.4 µM (inactive)"}]}]}
